Source: patent publication US8895578B2, “Carboxamide, sulfonamide and amine compounds and methods for using the same” (Rigel Pharmaceuticals, Inc., priority 2007, dated 2014)

Biological target: AMPK
Test: AMPK activation, enzyme-linked immunosorbent assay
Format: biochemical
Description: Compounds 1-54 were assayed for their ability to activate AMPK using an enzyme-linked immunosorbent assay.
Compounds 55-62 of Table 1 were assayed for their ability to activate AMPK using an enzyme-linked immunosorbent assay.
Compounds 63-66 of Table 1 were assayed for their ability to activate AMPK using an enzyme-linked immunosorbent assay.
Compounds 67-71 of Table 1 were assayed for their ability to activate AMPK using an enzyme-linked immunosorbent assay.
Compound 72 of Table 1 was assayed for its ability to activate AMPK using an enzyme-linked immunosorbent assay.

| SMILES | EC50 (Table 4, ELISA) | EC50 (Table 5, ELISA) |
| --- | --- | --- |
| N#Cc1ccc(CN2CCC(Oc3ccc4cc(C(=O)NC5CCN(Cc6ccccc6)CC5)ccc4c3)CC2)cc1 [Compound 64, N-(1-benzylpiperidin-4-yl)-6-(1-(4-cyano-benzyl)piperidin-4-yloxy)-2-naphthamide] | < 500 nM | – |
| CC(C)(C)OC(=O)N1CCC(NC(=O)c2ccc3ccc(OC4CCN(c5ccc(C(F)(F)F)cc5)CC4)cc3c2)CC1 [Compound 66, tert-butyl 4-(7-(1-(4-(trifluoromethyl)phenyl)piperidin-4-yloxy)-2-naphthamido)piperidine-1-carboxylate] | 1000 to 5000 nM | – |
| CC(C)(C)OC(=O)N1CCC(NC(=O)c2cnc3ccc(OC4CCN(c5ccc(C(F)(F)F)cc5)CC4)cc3c2)CC1 [Compound 67, tert-butyl 4-(6-(1-(4-(trifluoromethyl)phenyl)piperidin-4-yloxy)quinoline-3-carboxamido)piperidine-1-carboxylate] | – | 100 to 500 nM |

Results, then the compound that gave them:

| EC50 (Table 4, ELISA) | EC50 (Table 5, ELISA) | SMILES |
| --- | --- | --- |
| 1000 to 5000 nM | – | O=C(NC1CCN(Cc2ccccc2)CC1)c1ccc2cc(OC3CCN(c4ccc(C(F)(F)F)cc4)CC3)ccc2c1 [Compound 65, N-(1-benzylpiperidin-4-yl)-6-(1-(4-(trifluoro-methyl)phenyl)piperidin-4-yloxy)-2-naphthamide] |
| – | > 5000 nM | O=C(NC1CCNCC1)c1cnc2ccc(OC3CCN(c4ccc(C(F)(F)F)cc4)CC3)cc2c1 [Compound 68, N-(piperidin-4-yl)-6-(1-(4-(trifluoromethyl)phenyl)piperidin-4-yloxy) quinoline-3-carboxamide] |
| – | < 100 nM | N#Cc1ccc(CN2CCC(NC(=O)c3cnc4ccc(OC5CCN(c6ccc(C(F)(F)F)cc6)CC5)cc4c3)CC2)cc1 [Compound 69, N-(1-(4-cyanobenzyl)piperidin-4-yl)-6-(1-(4-(trifluoromethyl)phenyl)piperidin-4-yloxy) quinoline-3-carboxamide] |
| – | < 100 nM | O=C(NC1CCN(Cc2ccc(C(F)(F)F)cc2)CC1)c1cnc2ccc(OC3CCN(c4ccc(C(F)(F)F)cc4)CC3)cc2c1 [Compound 70, N-(1-(4-(trifluoromethyl)benzyl)piperidin-4-yl)-6-(1-(4-(trifluoromethyl)phenyl)piperidin-4-yloxy) quinoline-3-carboxamide] |
